Experimental data published in patent US20230129651A1, “HAIRPIN STRUCTURE NUCLEIC ACID MOLECULES CAPABLE OF MODULATING TARGET GENE EXPRESSION AND USES THEREOF” (KOREA ADVANCED INSTITUTE OF SCIENCE AND TECHNOLOGY, priority 2021, published 2023).
“Also recorded” adds a separate entry of the source.

Assays:
[1] = test system: bcl-xL mRNA; assay: bcl-xL mRNA expression in MDA-MB-453 cells; assay type: cell-based
Method: In the same manner as in Reference Example 4, miRNA triggers were transfected into cells. After 48 hours, total RNA was extracted using TRIzol (Thermo Fisher Scientific) according to the manufacturer's instruction. The purified RNA was treated with DNase I and then reverse transcribed in the presence of RevertAid reverse transcriptase (Thermo Fisher Scientific), with random hexamers (Thermo Fisher Scientific) serving as primers. For use in amplification of target genes, primers for target genes were added, together with the cDNA, to the SYBR Green PCR master mix (Thermo Fisher Scientific). RT-qPCR was conducted on a StepOnePlus real-time PCR system. Cq values obtained from this analysis was quantitatively analyzed based on the 2^−ΔΔC(t) method.
(§1) The selected linear miRNA triggers (bcl-xL(1)_222_222 and bcl-xL(2)_222_222) were transfected into the breast cancer cell line MDA-MB-453 to which miR-222 is not endogenous. Cell viability, and the mRNA and protein expression levels of the target gene (bcl-xL) were measured and the results are depicted in FIGS. 33a to 33c.

[2] = test system: Bcl-xL; assay: bcl-xL protein expression in MDA-MB-453 cells; assay type: cell-based
Method: (§2) miRNA triggers were transfected into cells in the same manner as in Reference Example 4. After 72 hours, the cells were collected using a cell scraper and lysed with a RIPA buffer (NaCl 150 mM, EDTA 5 mM, Tris 50 mM, NP-40 1.0%, sodium deoxycholate 0.5%, SDS 0.1%). The cell lysate was sonicated 15 times, each for 20 sec, with a halt for 30 sec every sonication. Following centrifugation at 5,000 g for 5 min, the supernatant was taken and used to extract proteins therefrom. A total of 30-40 μg of protein sample was separated in 10-15% SDS-PAGE gel and transferred onto a PVDF membrane through a semi-dry blotting system. The membrane was blocked for 1 hour in 5% skimmed milk and incubated for 2 hours with a 1,000-fold dilution of a primary antibody in, 1% skimmed milk. […] The membrane incubated with the secondary antibody was washed three times with 1×PBST for 10 min each wash, and then reacted with Clarity Western ECL Substrate (#1705061, Bio-Rad), after which images were obtained and analyzed using ChemiDoc (Bio-rad, Hercules, USA).
as §1

[3] = test system: breast cancer cell line MDA-MB-453; assay: Cell viability of MDA-MB-453 after transfection; assay type: cell-based; settings: miR-222 not endogenous
Method: (§3) The miRNA triggers were assayed for cytotoxicity and apoptosis induction, using the CCK-8 (Cell Counting Kit-8) (Dojindo, Kumamoto, Japan) according to the manufacturer's instruction. Cells were incubated in 96-well plates (5×10^3 cells/well) at 37° C. for 24 hours under a 5% CO2 atmosphere, followed by transfection. Three days after transfection, the medium was removed. A 10-fold dilution of CCK-8 solution in DMEM was added to the cells which were then incubated at 37° C. for 2 hours. After incubation, absorbance was read at 450 nm on Tecan Infinite M200 pro microplate reader (Mnnedorf, Switzerland).
as §1

[4] = test system: breast cancer cell line MDA-MB-231; assay: Cell viability of MDA-MB-231 after transfection; assay type: cell-based; settings: Example 8-1
Method: as §3
The seven linear miRNA triggers prepared above and the positive control siRNA(siBcl-xL) capable of binding to bcL-xL were transfected into the breast cancer cell line MDA-MB-231 in which miR-222 is overexpressed. Cell viability was measured and is depicted in FIG. 32a.
Linear miRNA triggers that could bind to miR-222 and target bcl-xL and mcl-1, respectively, were prepared and transfected alone or in combination into the breast cancer cell line MDA-MB-231. Cell viability was measured and the measurements are depicted in FIG. 34. siRNAs against Mcl-1 and Bcl-xL were used as controls. Sequences are listed in Table 23 for the linear miRNA trigger prepared above, in Tables 22 and 9 for the controls Luc-Luc-Luc and luc-222-222, respectively, and in Table 13 for the siRNAs. Every nucleotide of the triggers and the controls was chemically modified with 2′-OMe.
Linear miRNA triggers that could bind to miR-141 or let7f and target Bcl-xL or Mcl-1 were prepared and transfected alone or in combination into the breast cancer cell line MDA-MB-231 which was then measured for cell viability. […]
The hairpin miRNA triggers prepared above were transfected into MDA-MB-231 and MDA-MB-453 cells which were then measured for cell viability. […]
Hairpin miRNA triggers which could bind to miR-222 or let-7f and target mcl-1 or bcl-xL were prepared and transfected into the breast cancer cell line MDA-MB-231 which was then measured for cell viability. […]

[5] = test system: Hela-200c cells; assay: Cell viability / apoptosis of Hela-200c cells after transfection; assay type: cell-based
Method: as §3
(§4) The linear miRNA triggers or siRNAs (siLuc and siMcl-1) prepared above were transfected into Hela, Hela-141, and Hela-200c cells which were then measured for cell viability. The results are depicted in FIG. 15.

[6] = test system: Mcl-1 protein; assay: Western blotting of Mcl-1 protein in Hela-141 cells; assay type: cell-based; settings: 5 to 120 nM
Method: as §2
A linear miRNA trigger (Mcl-1-141-141; Table 15) that could bind to miR-141 and target mcl-1 was prepared while a linear miRNA trigger (Luc-141-141; Table 9) that could bind to miR-141 and target Luc (luciferase) was used as a control. […] Then, proteins were extracted from the Hela-141 cells and quantitatively analyzed for Mcl-1 protein level by western blotting. […]

[7] = test system: Hela-141 cells; assay: Cell viability / apoptosis of Hela-141 cells after transfection; assay type: cell-based
Method: as §3, §4
(§5) The hairpin miRNA triggers prepared above were transfected into Hela and Hela-141 cells which were then assayed for apoptosis. As a control, the siRNA (siMcl-1; Table 14) which can repress the expression of mcl-1 was transfected to Hela and Hela-141 cells and measured for apoptotic activity.

[8] = test system: Hela cells; assay: Cell viability / apoptosis of Hela cells after transfection; assay type: cell-based
Method: as §3, §4, §5

[9] = test system: MCF-7 breast cancer cells; assay: Cell viability of MCF-7 after transfection; assay type: cell-based; settings: siRNA 60 nM
Method: as §3
An siRNA targeting bcl-2, bcl-xL, or mcl-1 was transfected into MCF-7 breast cancer cells and PANC-1 pancreatic cancer cells. By using qRT-PCR, establishment was made of a condition under which the expression of each target gene is decreased by 80% or more (transfection was performed at a concentration of 60 nM with the aid of Lipofectamine). […] Under the same condition of decreasing the expression of each target gene by 80% or more, the cells transfected with the siRNAs were measured for apoptosis, and the results are depicted in FIGS. 14a and 14b.
Linear miRNA triggers that could bind to miR-141 or let7f and target bcl-xL or mcl-1 were prepared and transfected alone or in combination into the breast cancer cell line MCF-7 which was then measured for cell viability. […]

[10] = test system: miRNA-141 and PKR mRNA (2); assay: PAGE assay of dumbbell miRNA trigger binding to miRNA and target mRNA; settings: 100 nM each, 37° C., 1 hour
Method: To a buffer (1×PBS buffer, +5 mM MgCl2, 137 mM NaCl, 10 mM PO4, 2.7 mM KCl, 5 mM MgCl2; pH 7.4) containing 100 nM of the dumbbell miRNA trigger (DP) prepared above, 100 nM miRNA and/or 100 nM target mRNA was added, followed by incubation at 37° C. for 1 hour. Each sample was loaded to a PAGE gel and run. The results are depicted in FIG. 39b.

bcl-xL(2)_222_222: linear miRNA trigger binding miR-222 and knocking down bcl-xL; SEQ ID NO 107 (ACCCAGUAGCCAGAUGUAGCUACCCAGUAGCCAGAUGUAGCUUACCUGCCAGCCUCCUU; all 2'-O-methyl, backbone not given here)
mRNA expression level of target bcl-xL [1]: did not significantly change
protein expression level of target bcl-xL [2]: did not significantly change
cell viability [3]: did not significantly change
killing of breast cancer cells (cell viability) [4]: effectively kill breast cancer cells

Mcl-1_141_141: linear miRNA trigger binding miR-141 and targeting Mcl-1 gene; SEQ ID NO 65 (110 in Table 24) (CCAUCUUUACCUCACAGUGUUACCAUCUUUACCUCACAGUGUUACCGAACUACGUAGC; all 2'-O-methyl, backbone not given here)
apoptosis / cell viability (in words) [5]: no significant influence on cell viability
Mcl-1 protein level compared to control Luc-141-141 [6]: significantly decreased in Mcl-1 protein level
apoptosis induced [7]: about 40%

siMcl-1: siRNA targeting mcl-1; SEQ ID NO 64 (AAAUUCGAUACUUCCUUCG; listed as RNA, chemistry not given here) [reference compound]
apoptosis / cell viability (in words) [5]: induced apoptosis
apoptosis / cell viability (in words) [8]: induced apoptosis; also recorded: brought about an apoptotic effect
cell viability / apoptosis after siRNA (in words) [9]: decreased in cell viability
apoptosis / cell viability (in words) [7]: induced apoptosis; also recorded: brought about an apoptotic effect

B1: bcl-xL(1)_222_222: linear miRNA trigger binding miR-222 and knocking down bcl-xL; SEQ ID NO 106 (nucleic acid)
chain: ACCCAGUAGCCAGAUGUAGCUACCCAGUAGCCAGAUGUAGCUUCUCCUUCCUGCCCUUCCU
modifications: all 2'-O-methyl, backbone not given here
mRNA expression level of target bcl-xL [1]: did not significantly change
protein expression level of target bcl-xL [2]: did not significantly change
cell viability [3]: did not significantly change
killing of breast cancer cells (cell viability) [4]: effectively kill breast cancer cells

B2: DB_PKRS20_141: dumbbell-shaped miRNA trigger, 20-nt mRNA-binding portion, binds miRNA-141 and PKR mRNA; SEQ ID NO 130 (nucleic acid)
chain: CCCCCCGAATGAGAAATACCATCTTTACCAGACAGTGTTATATTTCTCATTCCCTTCCTTNNAAGGAAGGGGGGGG
modifications: listed as DNA, chemistry not given here
binding to target mRNA in the absence of the miRNA ([10]; lane 3): did not bind to a target mRNA
binding to miRNA and/or target mRNA in the presence of the miRNA ([10]; lanes 2 and 4): could bind to a miRNA and/or target mRNA only in the presence of the miRNA
